Data on 16 compounds can be found in ChEMBL document CHEMBL1201862, “PubChem BioAssay data set” (2004).

Holding throughout (assay): NCI tumour cell line growth inhibition, 48 h
For assay [1], the system named is DMS-273.
Assay [2] relates to DLD-1.
In assay [3] the test system is DMS-114.
The subject of assay [4] is XF498.
For assay [5], the system named is KM-20L2.
The subject of assay [6] is SNB-78.
Assay [7] relates to M19-MEL.
The subject of assay [8] is HOP-18.
Assay [9] deals with RXF 631.

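Grown in 96-well plates, cells were treated for 48 hours with each compound at five concentrations. Insufficient inhibition: endpoint recorded as highest concentration tested. GI50 = concentration required for 50% inhibition of growth.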 Calls of active or inactive are those of the source. Rule as the data show it: active = GI50 up to about 1.1 µM and inactive = higher. Bounds are passed on as bounds.

As to `CCc1cccc(C(C)CC)c1NC(=O)CC1C(=O)Nc2ccccc2S1(=O)=O` (centres undefined), the GI50 was 13.6 µM (inactive) in assay [1]; 13.6 µM (inactive) in assay [2]; 13.5 µM (inactive) in assay [3]; > 100 µM (inactive) in assay [4]; 25.2 µM (inactive) in [5]; 14.2 µM (inactive) in [6]. In addition, the GI50 in [7] was 26.9 µM (inactive).

`O=C(c1ccncc1)n1nc(-c2ccccc2)c(/N=N/c2ccc([N+](=O)[O-])cc2)c1-c1ccccc1`: the GI50 in assay [1] was > 100 µM (inactive); in assay [2], > 100 µM (inactive); in assay [3], 24.4 µM (inactive); in assay [4], 57.8 µM (inactive); in [6] it was 14.8 µM (inactive); in assay [7], > 100 µM (inactive).

As for `O=C1CCC(Cl)=CC2CCCN12` (centres undefined), the GI50 in assay [2], in assay [3], in assay [5], in assay [6] and in assay [7] was > 100 µM (inactive) each time.

As for `COc1ccc(-c2c(C3=NCCCN3)nnn2-c2ccccc2)cc1`, the GI50 in [8], in assay [1], in assay [2], in assay [3], in assay [4] and in assay [5] was > 100 µM (inactive) each time. For the same compound, the GI50 in assay [6] and in assay [7] was > 100 µM (inactive) each time.

As for `C[Si](C)(C)/C=C/CN1C(=O)CCC1O` (centres undefined), the GI50 in [8], in assay [1], in [2], in assay [3], in assay [4] and in assay [5] was > 100 µM (inactive) in each case. In addition, the GI50 in assay [6] and in assay [7] was > 100 µM (inactive) each time.

Take `Nn1c(S)nnc1N/N=C1/C(=O)Nc2c(Cl)cc(Cl)cc21`: the GI50 was > 100 µM (inactive) in assay [8]; > 100 µM (inactive) in assay [2]; > 100 µM (inactive) in [3]; 81.8 µM (inactive) in assay [5]; > 100 µM (inactive) in assay [6]; > 100 µM (inactive) in [7].

Regarding `Nc1ccc2nc(Nc3ccc(Cl)c(Cl)c3)cnc2c1`, the GI50 in assay [1] is 18.2 µM (inactive); in assay [2], 34.7 µM (inactive); in [3], 10 µM (inactive); in assay [6], 24.6 µM (inactive); in assay [7], 18.2 µM (inactive).

As to `O=c1[nH]c(=O)n(C2CC(O)C(CS)O2)cc1F` (centres undefined), the GI50 in assay [8] is > 100 µM (inactive); in [2], > 100 µM (inactive); in assay [3], > 100 µM (inactive); in assay [4] it was > 100 µM (inactive); in assay [5] it was 78.9 µM (inactive); in [6], > 100 µM (inactive). Besides, the GI50 in assay [7] was 77.6 µM (inactive).

Consider `CC(=O)O/N=C(Cl)/C(Cl)=N/OC(C)=O`, for which the GI50 in assay [8], in assay [1], in assay [2], in assay [3], in [4] and in [5] was > 100 µM (inactive) throughout. Further, the GI50 in assay [6] was > 100 µM (inactive).

With `CCOC(=O)C(CC(C)C)NC(=O)C(N)Cc1ccc(N(CCCl)CCCl)cc1` (centres undefined), the GI50 in assay [8] is 4.24 µM (inactive); in assay [1], 0.632 µM (active); in [2], 2.52 µM (inactive); in assay [3], 1.69 µM (inactive); in assay [4], 1.52 µM (inactive); in assay [5] it was 3.33 µM (inactive). Besides, in [7], the GI50 is 1.65 µM (inactive).

Consider `C=CCNC(=S)OCCCCCCCCCC`, for which the GI50 is 22.3 µM (inactive) in assay [8]; 19.9 µM (inactive) in assay [1]; 16.4 µM (inactive) in assay [2]; 17 µM (inactive) in [3]; 16 µM (inactive) in [4]; 18.6 µM (inactive) in assay [5]. For the same compound, the GI50 in assay [6] was 19.5 µM (inactive); in assay [7], 17.6 µM (inactive).

On to `CC(=O)OCC1OC(N=[N+]=[N-])C(OC(C)=O)C(OC(C)=O)C1OC1OC(COC(C)=O)C(OC(C)=O)C(OC(C)=O)C1OC(C)=O` (centres undefined), for which the GI50 in assay [9] is > 100 µM (inactive); in assay [1] it was > 100 µM (inactive); in assay [3], > 100 µM (inactive); in assay [4] it was > 100 µM (inactive); in [5], > 100 µM (inactive); in assay [6], 71.6 µM (inactive). For the same compound, the GI50 in assay [7] was > 100 µM (inactive).

Regarding `CN1CCc2c1nc(-c1ccccc1)c1c2N(C)CC1`, the GI50 in assay [8] was 3.82 µM (inactive); in assay [1], 53.6 µM (inactive); in assay [2], 45.3 µM (inactive); in assay [5], 52.8 µM (inactive); in [6], > 100 µM (inactive); in assay [7], > 100 µM (inactive).

Take `FC(F)(F)c1cccc2ns[s+]c12`: the GI50 in assay [8] is > 100 µM (inactive); in [9] it was > 100 µM (inactive); in assay [1], > 100 µM (inactive); in [2], 35 µM (inactive); in [4], > 100 µM (inactive); in assay [5], > 100 µM (inactive). Also, the GI50 in assay [6] and in assay [7] was > 100 µM (inactive) in each case.

`CCSc1nc(COC(=O)NC)c(COC(=O)NC)n1C`: the GI50 in [8] was > 100 µM (inactive); in assay [9], > 100 µM (inactive); in assay [1], > 94.4 µM (inactive); in assay [2], > 92.3 µM (inactive); in assay [3] it was 46.6 µM (inactive); in assay [5], > 100 µM (inactive). Further, the GI50 in [6] was > 70.1 µM (inactive); in [7] it was > 63.5 µM (inactive).

In the case of `CCCCCCCCCCCCCCCCCCCCCCC(=O)N[C@H]1CCc2cc(OC)c(OC)c(OC)c2-c2ccc(SC)c(=O)cc21`, the GI50 is 14.1 µM (inactive) in assay [9]; 27.9 µM (inactive) in assay [1]; 20.8 µM (inactive) in assay [4]; 18.7 µM (inactive) in assay [5]; 41.9 µM (inactive) in [6]; 50 µM (inactive) in assay [7].
